# Test results as given in patent US20260092071A1, “COMPOUNDS AND COMPOSITIONS AS SMARCA2/4 DEGRADERS AND USES THEREOF” (REGENTS OF THE UNIVERSITY OF MICHIGAN, priority 2022, published 2026).
# Where two headings read alike, the source gives them in different places.
# Experiments:
# SMARCA2 = SMARCA2 (Homo sapiens, UniProt P51531); experiment: HiBiT assay for protein degradation, Hela SMARCA2-HiBiT cells (A series); format: cell-based; parameters: Hela cells were genetically modified via CRISPR/Cas9 to fuse HiBiT to the carboxy terminus of SMARCA2; host or cells: HeLa (CRISPR/Cas9 HiBiT knock-in); settings: for DC50: read-out: SMARC A2 Hela HiBit DC50; for Dmax: read-out: SMARC A2 Hela HiBit Dmax (%);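 for SMARC A2 Hela HiBit Dmax (%): 24 h compound treatment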
# Summary of the method: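 HeLa cells engineered by CRISPR/Cas9 to carry a HiBiT tag fused to the C-terminus of SMARCA2 (Promega CS302365) were grown in DMEM supplemented with FBS and penicillin-streptomycin. After treatment, remaining SMARCA2 protein was quantified with the Nano-Glo® HiBiT Lytic Detection Assay (Promega N3050), and curves were fitted in GraphPad Prism.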
# SMARCA4 = SMARCA4 (Homo sapiens, UniProt P51532); experiment: HiBiT assay for protein degradation, Hela SMARCA4-HiBiT cells (A series); format: cell-based; parameters: fuse HiBiT to the carboxy terminus of SMARCA2 (Promega CS302365) or SMARCA4 (Promega CS3023225); host or cells: HeLa (CRISPR/Cas9 HiBiT knock-in); settings: for DC50: read-out: SMARC A4 Hela HiBit DC50
# Summary of the method: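 HeLa cells engineered by CRISPR/Cas9 to carry a HiBiT tag fused to the C-terminus of SMARCA4 (Promega CS3023225) were grown in DMEM supplemented with FBS and penicillin-streptomycin. After compound exposure, remaining SMARCA4 protein was quantified using the Nano-Glo® HiBiT Lytic Detection Assay (Promega N3050), and curves were fitted in GraphPad Prism.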
# [1] = Hela SMARCA2-HiBiT cells, 24 hours treatment
# [2] = Hela SMARCA4-HiBiT cells, 24 hours treatment
# [3] = Hela SMARCA4-HiBiT cells, 24 hours treatment, read-out: SMARC A4 Hela HiBit Dmax
# [4] = Hela SMARCA4-HiBiT cells, 24 hours treatment, read-out: SMARC A4 Hela HiBit Dmax(%)
# SMARCA4, sequence (P51532 whole entry, the tested form may be a part): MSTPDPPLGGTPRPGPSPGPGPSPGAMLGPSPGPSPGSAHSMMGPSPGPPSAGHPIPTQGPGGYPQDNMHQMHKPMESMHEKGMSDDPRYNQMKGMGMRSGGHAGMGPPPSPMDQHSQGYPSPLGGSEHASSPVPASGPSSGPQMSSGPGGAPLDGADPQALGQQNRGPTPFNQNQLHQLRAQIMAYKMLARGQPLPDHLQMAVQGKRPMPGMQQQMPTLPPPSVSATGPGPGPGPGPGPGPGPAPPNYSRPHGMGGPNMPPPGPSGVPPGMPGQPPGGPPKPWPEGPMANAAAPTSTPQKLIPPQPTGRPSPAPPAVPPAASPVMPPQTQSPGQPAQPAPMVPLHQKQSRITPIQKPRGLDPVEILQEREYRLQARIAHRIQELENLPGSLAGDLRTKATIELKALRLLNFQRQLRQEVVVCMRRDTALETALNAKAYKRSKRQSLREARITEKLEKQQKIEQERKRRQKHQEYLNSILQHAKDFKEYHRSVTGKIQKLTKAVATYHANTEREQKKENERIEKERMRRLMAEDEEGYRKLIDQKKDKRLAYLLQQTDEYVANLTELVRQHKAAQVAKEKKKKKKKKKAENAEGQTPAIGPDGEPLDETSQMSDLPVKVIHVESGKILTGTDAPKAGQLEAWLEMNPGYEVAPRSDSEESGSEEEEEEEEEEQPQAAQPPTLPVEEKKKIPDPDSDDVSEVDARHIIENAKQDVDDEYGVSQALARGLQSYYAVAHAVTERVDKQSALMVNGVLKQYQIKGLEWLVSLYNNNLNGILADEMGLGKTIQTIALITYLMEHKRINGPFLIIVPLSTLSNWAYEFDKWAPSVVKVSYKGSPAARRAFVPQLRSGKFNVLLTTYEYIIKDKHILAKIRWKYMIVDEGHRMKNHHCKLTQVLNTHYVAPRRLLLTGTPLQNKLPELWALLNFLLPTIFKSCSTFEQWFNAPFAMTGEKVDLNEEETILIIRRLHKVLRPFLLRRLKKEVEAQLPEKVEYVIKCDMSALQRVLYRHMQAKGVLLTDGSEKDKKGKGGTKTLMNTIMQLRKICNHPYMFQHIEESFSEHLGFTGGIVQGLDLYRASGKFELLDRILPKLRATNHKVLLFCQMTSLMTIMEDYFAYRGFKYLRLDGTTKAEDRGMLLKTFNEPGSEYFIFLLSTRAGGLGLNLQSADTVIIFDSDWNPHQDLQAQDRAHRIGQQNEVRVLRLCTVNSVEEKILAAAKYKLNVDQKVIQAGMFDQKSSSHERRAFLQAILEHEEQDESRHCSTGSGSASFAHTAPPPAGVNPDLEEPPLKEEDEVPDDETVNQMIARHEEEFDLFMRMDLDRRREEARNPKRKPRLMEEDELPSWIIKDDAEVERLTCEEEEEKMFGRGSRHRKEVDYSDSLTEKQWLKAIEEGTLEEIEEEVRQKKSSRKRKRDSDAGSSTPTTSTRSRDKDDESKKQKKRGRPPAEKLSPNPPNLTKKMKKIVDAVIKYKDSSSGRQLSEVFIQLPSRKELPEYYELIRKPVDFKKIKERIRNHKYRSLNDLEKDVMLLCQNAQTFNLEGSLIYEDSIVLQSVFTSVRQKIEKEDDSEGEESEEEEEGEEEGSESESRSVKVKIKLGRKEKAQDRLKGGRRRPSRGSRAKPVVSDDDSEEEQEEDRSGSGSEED
# SMARCA2, sequence (P51531 whole entry, the tested form may be a part): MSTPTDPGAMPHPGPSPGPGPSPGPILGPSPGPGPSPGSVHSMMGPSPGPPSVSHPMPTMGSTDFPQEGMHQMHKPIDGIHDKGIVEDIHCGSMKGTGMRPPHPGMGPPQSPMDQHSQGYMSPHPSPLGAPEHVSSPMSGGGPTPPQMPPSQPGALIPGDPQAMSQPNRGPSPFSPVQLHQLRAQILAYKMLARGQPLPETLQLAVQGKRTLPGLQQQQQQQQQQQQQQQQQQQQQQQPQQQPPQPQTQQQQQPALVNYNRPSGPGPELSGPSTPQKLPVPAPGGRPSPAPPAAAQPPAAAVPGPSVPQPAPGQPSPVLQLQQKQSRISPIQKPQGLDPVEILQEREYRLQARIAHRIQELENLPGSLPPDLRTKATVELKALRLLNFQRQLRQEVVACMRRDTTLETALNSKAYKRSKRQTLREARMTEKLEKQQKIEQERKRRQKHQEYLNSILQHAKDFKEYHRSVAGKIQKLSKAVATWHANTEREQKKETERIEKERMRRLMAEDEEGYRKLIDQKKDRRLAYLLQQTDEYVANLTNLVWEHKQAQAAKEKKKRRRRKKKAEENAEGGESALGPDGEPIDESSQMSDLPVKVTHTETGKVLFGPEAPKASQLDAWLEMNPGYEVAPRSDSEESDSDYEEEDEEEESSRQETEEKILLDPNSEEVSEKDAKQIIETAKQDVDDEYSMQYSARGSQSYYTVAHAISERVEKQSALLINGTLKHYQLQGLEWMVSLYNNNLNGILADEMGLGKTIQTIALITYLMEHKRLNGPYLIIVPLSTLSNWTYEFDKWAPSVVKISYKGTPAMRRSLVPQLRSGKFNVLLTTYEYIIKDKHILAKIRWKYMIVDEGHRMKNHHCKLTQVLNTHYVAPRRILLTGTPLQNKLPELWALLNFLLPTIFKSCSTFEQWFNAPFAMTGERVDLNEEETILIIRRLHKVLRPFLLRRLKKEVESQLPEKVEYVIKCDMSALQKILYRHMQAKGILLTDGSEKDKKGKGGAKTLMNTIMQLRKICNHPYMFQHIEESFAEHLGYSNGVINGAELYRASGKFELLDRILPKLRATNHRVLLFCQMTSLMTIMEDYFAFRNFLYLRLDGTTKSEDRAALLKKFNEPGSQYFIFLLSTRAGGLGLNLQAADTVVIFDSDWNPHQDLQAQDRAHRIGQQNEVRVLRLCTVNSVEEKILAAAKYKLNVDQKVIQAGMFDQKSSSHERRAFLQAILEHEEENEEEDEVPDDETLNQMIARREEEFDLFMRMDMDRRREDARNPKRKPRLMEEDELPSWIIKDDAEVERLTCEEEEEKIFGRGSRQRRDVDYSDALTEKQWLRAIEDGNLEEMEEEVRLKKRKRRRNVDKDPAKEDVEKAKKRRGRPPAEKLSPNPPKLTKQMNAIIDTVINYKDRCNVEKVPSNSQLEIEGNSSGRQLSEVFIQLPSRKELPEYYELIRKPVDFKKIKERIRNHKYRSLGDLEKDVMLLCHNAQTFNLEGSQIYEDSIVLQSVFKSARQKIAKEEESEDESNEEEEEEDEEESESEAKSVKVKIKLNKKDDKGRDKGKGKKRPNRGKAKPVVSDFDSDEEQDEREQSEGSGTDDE
DC50 (SMARCA2; [1]),Dmax (SMARCA2; [1]),DC50 (SMARCA4; [2]),Dmax (SMARCA4; [3]),Dmax (SMARCA4; [4]),SMARC A4 Hela HiBit DC50(nM) (SMARCA4; [2]),Structure (SMILES),Dmax (SMARCA2; HeLa),"Dmax (SMARCA4; HeLa, read-out: SMARC A4 Hela HiBit Dmax(%))"
100 to 1000 nM,70 to 90%,> 1000 nM,< 50%,,,"Cc1ncsc1-c1ccc([C@H](CN2CC(C(=O)O)C2)NC(=O)[C@@H]2C[C@@H](O)CN2C(=O)[C@@H](n2cc([C@H]3CC[C@H](CN4CCC(c5ccc6c(c5)-n5c(nc(=O)c7c(Cl)cccc75)C65CCCCC5)CC4)CC3)nn2)C(C)(C)C)cc1 [Compound A157, 1-((R)-2-((2S,4R)-1-((S)-2-(4-((1r,4S)-4-((4-(4′-chloro-5′-oxo-5′H-spiro[cyclohexane-1,7′-indolo[1,2-a]quinazolin]-10′-yl)piperidin-1-yl)methyl)cyclohexyl)-1H-1,2,3-triazol-1-yl)-3,3-dimethylbutanoyl)-4-hydroxypyrrolidine-2-carboxamido)-2-(4-(4-methylthiazol-5-yl)phenyl)ethyl) azetidine-3-carboxylic acid]",,
< 100 nM,> 90%,> 1000 nM,,50 to 69%,,"Cc1ncsc1-c1ccc([C@H](CN2CC(C)(O)C2)NC(=O)[C@@H]2C[C@@H](O)CN2C(=O)[C@@H](n2cc([C@H]3CC[C@H](CN4CCC(c5ccc6c(c5)-n5c(nc(=O)c7c(Cl)cccc75)C65CCCCC5)CC4)CC3)nn2)C(C)(C)C)cc1 [Compound A71, (2S,4R)-1-((S)-2-(4-((1r,4S)-4-((4-(4′-chloro-5′-oxo-5′H-spiro[cyclohexane-1,7′-indolo[1,2-a]quinazolin]-10′-yl)piperidin-1-yl)methyl)cyclohexyl)-1H-1,2,3-triazol-1-yl)-3,3-dimethylbutanoyl)-4-hydroxy-N—((R)-2-(3-hydroxy-3-methylazetidin-1-yl)-1-(4-(4-methylthiazol-5-yl)phenyl)ethyl)pyrrolidine-2-carboxamide]",,
< 10 nM,> 90%,> 1000 nM,< 50%,,,"Cc1ncccc1-c1ccc([C@H](CN2CCOCC2)NC(=O)[C@@H]2C[C@@H](O)CN2C(=O)[C@@H](n2cc([C@H]3CC[C@H](CN4CCC(c5ccc6c(c5)-n5c(nc(=O)c7c(Cl)cccc75)C65CCCCC5)CC4)CC3)nn2)C(C)(C)C)cc1 [Compound A174, (2S,4R)-1-((S)-2-(4-((1r,4S)-4-((4-(4′-chloro-5′-oxo-5′H-spiro[cyclohexane-1,7′-indolo[1,2-a]quinazolin]-10′-yl)piperidin-1-yl)methyl)cyclohexyl)-1H-1,2,3-triazol-1-yl)-3,3-dimethylbutanoyl)-4-hydroxy-N—((R)-1-(4-(2-methylpyridin-3-yl)phenyl)-2-morpholinoethyl)pyrrolidine-2-carboxamide]",,
< 100 nM,> 90%,100 to 500 nM,,70 to 90%,,"Cc1ncsc1-c1ccc([C@H](CCCCN2CCC(c3ccc4c(c3)C3(CCCC3)c3nc(=O)c5c(Cl)cccc5n3-4)CC2)NC(=O)[C@@H]2C[C@@H](O)CN2C(=O)[C@@H](NC(=O)C2(F)CC2)C(C)(C)C)cc1 [Compound A1, (2S,4R)-N-((S)-5-(4-(4′-chloro-5′-oxo-5′H-spiro[cyclopentane-1,7′-indolo[1,2-a]quinazolin]-9′-yl)piperidin-1-yl)-1-(4-(4-methylthiazol-5-yl)phenyl)pentyl)-1-((S)-2-(1-fluorocyclopropane-1-carboxamido)-3,3-dimethylbutanoyl)-4-hydroxypyrrolidine-2-carboxamide]",,
501 to 1000 nM,50 to 69%,> 1000 nM,,< 50%,,"Cc1ncsc1-c1ccc([C@H](Cn2cc([C@H]3CC[C@H](CN4CCC(c5ccc6c(n5)-n5c(nc(=O)c7c(Br)cccc75)C65CCCCC5)CC4)CC3)nn2)NC(=O)[C@@H]2C[C@@H](O)CN2C(=O)[C@@H](NC(=O)C2(F)CC2)C(C)(C)C)cc1 [Compound A34, (2S,4R)—N—((R)-2-(4-((1r,4R)-4-((4-(4′-bromo-5′-oxo-5′H-spiro[cyclohexane-1,7′-pyrido[3′,2′: 4,5]pyrrolo[1,2-a]quinazolin]-10′-yl)piperidin-1-yl)methyl)cyclohexyl)-1H-1,2,3-triazol-1-yl)-1-(4-(4-methylthiazol-5-yl)phenyl)ethyl)-1-((S)-2-(1-fluorocyclopropane-1-carboxamido)-3,3-dimethylbutanoyl)-4-hydroxypyrrolidine-2-carboxamide]",,
< 10 nM,70 to 90%,> 1000 nM,< 50%,,,COCCOCCOC[C@H](NC(=O)[C@@H]1C[C@@H](O)CN1C(=O)[C@@H](n1cc([C@H]2CC[C@H](CN3CCC(c4ccc5c(c4)-n4c(nc(=O)c6c(Cl)cccc64)C5(C)C)CC3)CC2)nn1)C(C)(C)C)c1ccc(-c2scnc2C)cc1 [Compound A92],,
< 10 nM,> 90%,> 1000 nM,< 50%,,,"COC(=O)C1CN(C[C@H](NC(=O)[C@@H]2C[C@@H](O)CN2C(=O)[C@@H](n2cc([C@H]3CC[C@H](CN4CCC(c5ccc6c(c5)-n5c(nc(=O)c7c(Cl)cccc75)C65CCCCC5)CC4)CC3)nn2)C(C)(C)C)c2ccc(-c3scnc3C)cc2)C1 [Compound A154, methyl 1-((R)-2-((2S,4R)-1-((S)-2-(4-((1r,4S)-4-((4-(4′-chloro-5′-oxo-5′H-spiro[cyclohexane-1,7′-indolo[1,2-a]quinazolin]-10′-yl)piperidin-1-yl)methyl)cyclohexyl)-1H-1,2,3-triazol-1-yl)-3,3-dimethylbutanoyl)-4-hydroxypyrrolidine-2-carboxamido)-2-(4-(4-methylthiazol-5-yl)phenyl)ethyl) azetidine-3-carboxylate]",,
501 to 1000 nM,50 to 69%,,,< 50%,No fit,"Cc1ncsc1-c1ccc([C@H](CCCCN2CCC(c3ccc4c(c3)-n3c(nc(=O)c5c(Cl)cccc53)C43CCOCC3)CC2)NC(=O)[C@@H]2C[C@@H](O)CN2C(=O)[C@@H](NC(=O)C2(F)CC2)C(C)(C)C)cc1 [Compound A10, (2S,4R)—N—((S)-5-(4-(4-chloro-5-oxo-2′,3′,5′,6′-tetrahydro-5H-spiro[indolo[1,2-a]quinazoline-7,4′-pyran]-10-yl)piperidin-1-yl)-1-(4-(4-methylthiazol-5-yl)phenyl)pentyl)-1-((S)-2-(1-fluorocyclopropane-1-carboxamido)-3,3-dimethylbutanoyl)-4-hydroxypyrrolidine-2-carboxamide]",,
< 100 nM,> 90%,100 to 500 nM,,70 to 90%,,"Cc1ncsc1-c1ccc([C@H](Cn2cc([C@H]3CC[C@H](CN4CCC(c5ccc6c(c5)C5(CCCCC5)c5nc(=O)c7c(Br)cccc7n5-6)CC4)CC3)nn2)NC(=O)[C@@H]2C[C@@H](O)CN2C(=O)[C@@H](NC(=O)C2(F)CC2)C(C)(C)C)cc1 [Compound A33, (2S,4R)—N—((R)-2-(4-((1r,4R)-4-((4-(4′-bromo-5′-010-5′H-spiro[cyclohexane-1,7′-indolo[1,2-a]quinazolin]-9′-yl)piperidin-1-yl)methyl)cyclohexyl)-1H-1,2,3-triazol-1-yl)-1-(4-(4-methylthiazol-5-yl)phenyl)ethyl)-1-((S)-2-(1-fluorocyclopropane-1-carboxamido)-3,3-dimethylbutanoyl)-4-hydroxypyrrolidine-2-carboxamide]",,

Structure (SMILES),DC50 (SMARCA2; [1]),Dmax (SMARCA2; [1]),DC50 (SMARCA4; [2]),Dmax (SMARCA4; [3]),Dmax (SMARCA4; [4]),SMARC A4 Hela HiBit DC50(nM) (SMARCA4; [2]),Dmax (SMARCA2; HeLa),"Dmax (SMARCA4; HeLa, read-out: SMARC A4 Hela HiBit Dmax(%))"
"Cc1ncsc1-c1ccc([C@H](C)NC(=O)[C@@H]2C[C@@H](O)CN2C(=O)[C@@H](n2cc([C@H]3CC[C@H](CN4CCC(c5ccc6c(n5)-n5c(nc(=O)c7c(Cl)cccc75)C65CCCCC5)CC4)CC3)nn2)C(C)(C)C)cc1 [Compound A78, (2S,4R)-1-((S)-2-(4-((1r,4S)-4-((4-(4′-chloro-5′-oxo-5′H-spiro[cyclohexane-1,7′-pyrido[3′,2′: 4,5]pyrrolo[1,2-a]quinazolin]-10′-yl)piperidin-1-yl)methyl)cyclohexyl)-1H-1,2,3-triazol-1-yl)-3,3-dimethylbutanoyl)-4-hydroxy-N—((S)-1-(4-(4-methylthiazol-5-yl)phenyl)ethyl)pyrrolidine-2-carboxamide]",10 to 100 nM,,> 1000 nM,,,,70 to 90%,
"Cc1ncsc1-c1ccc([C@H](C)NC(=O)[C@@H]2C[C@@H](O)CN2C(=O)[C@@H](NC(=O)[C@H]2CC[C@H](CN3CCC(c4ccc5c(c4)C4(CCCCC4)c4nc(=O)c6c(Br)cccc6n4-5)CC3)CC2)C(C)(C)C)cc1 [Compound A14, (2S,4R)-1-((S)-2-((1r,4S)-4-((4-(4′-bromo-5′-oxo-5′H-spiro[cyclohexane-1,7′-indolo[1,2-a]quinazolin]-9′-yl)piperidin-1-yl)methyl)cyclohexane-1-carboxamido)-3,3-dimethylbutanoyl)-4-hydroxy-N—((S)-1-(4-(4-methylthiazol-5-yl)phenyl)ethyl)pyrrolidine-2-carboxamide]",< 100 nM,,100 to 500 nM,,,,> 90%,50 to 69%
